Measurements as given in ChEMBL document CHEMBL4616689, “PROTAC Compounds Targeting Androgen Receptor for Cancer Therapeutics: Prostate Cancer and Kennedy's Disease” (ACS Med Chem Lett, 2020).

Key:
Type in all cases: cell-based
[1] = target: T1, von Hippel-Lindau disease tumor suppressor/Androgen receptor (Homo sapiens, UniProt P10275+P40337); assay: Protac activity at E3 ubiquitin-protein ligase/AR in human LNCAP cells assessed as induction of AR degradation after 24 hrs by ELISA relative to control
Target sequence in this assay (P10275 whole entry, looked up): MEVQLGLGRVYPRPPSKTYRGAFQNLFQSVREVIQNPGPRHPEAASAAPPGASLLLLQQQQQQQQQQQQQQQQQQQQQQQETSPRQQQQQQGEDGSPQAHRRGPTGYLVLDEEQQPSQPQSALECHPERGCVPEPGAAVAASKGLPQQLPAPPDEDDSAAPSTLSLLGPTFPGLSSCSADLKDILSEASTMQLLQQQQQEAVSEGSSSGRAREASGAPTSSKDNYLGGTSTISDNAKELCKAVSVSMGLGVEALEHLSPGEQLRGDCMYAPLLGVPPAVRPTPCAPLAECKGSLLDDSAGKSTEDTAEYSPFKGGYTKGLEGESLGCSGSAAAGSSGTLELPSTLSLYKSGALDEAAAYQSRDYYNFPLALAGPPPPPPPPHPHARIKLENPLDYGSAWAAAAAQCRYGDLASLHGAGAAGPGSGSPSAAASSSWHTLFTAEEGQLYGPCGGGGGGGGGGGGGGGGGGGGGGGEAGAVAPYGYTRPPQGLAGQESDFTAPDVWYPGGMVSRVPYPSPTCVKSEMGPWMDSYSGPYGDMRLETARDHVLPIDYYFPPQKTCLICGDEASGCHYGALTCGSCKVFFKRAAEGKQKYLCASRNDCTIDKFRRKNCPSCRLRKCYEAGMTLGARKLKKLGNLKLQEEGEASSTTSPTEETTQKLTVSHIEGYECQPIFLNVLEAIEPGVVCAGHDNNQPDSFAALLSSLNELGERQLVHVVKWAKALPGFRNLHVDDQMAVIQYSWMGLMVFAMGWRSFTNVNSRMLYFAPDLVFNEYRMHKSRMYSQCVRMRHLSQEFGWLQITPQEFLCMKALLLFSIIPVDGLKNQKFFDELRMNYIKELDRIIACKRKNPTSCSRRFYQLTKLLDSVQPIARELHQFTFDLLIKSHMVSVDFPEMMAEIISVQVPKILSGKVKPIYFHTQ
Target sequence in this assay (P40337 whole entry, looked up): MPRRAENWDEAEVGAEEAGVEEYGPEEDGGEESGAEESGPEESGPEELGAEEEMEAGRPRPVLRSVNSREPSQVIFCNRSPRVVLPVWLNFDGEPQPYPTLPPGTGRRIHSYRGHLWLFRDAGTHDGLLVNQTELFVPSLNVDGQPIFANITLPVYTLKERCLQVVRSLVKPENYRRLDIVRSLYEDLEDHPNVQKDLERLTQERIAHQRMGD

[2] = target: T1, von Hippel-Lindau disease tumor suppressor/Androgen receptor; assay: Protac activity at E3-ubiquitin ligase/AR in human VCaP cells assessed as AR degradation up to 15 mins by ELISA relative to control; set-up: concentration or dose not given beside the values
Target sequence in this assay (P10275 whole entry, looked up): as the sequence (P10275 whole entry, looked up) above
Target sequence in this assay (P40337 whole entry, looked up): as the sequence (P40337 whole entry, looked up) above

[3] = target: T1, von Hippel-Lindau disease tumor suppressor/Androgen receptor; assay: Protac activity at E3 ubiquitin-protein ligase/AR in human VCAP cells assessed as induction of AR degradation after 24 hrs by ELISA relative to control
Target sequence in this assay (P10275 whole entry, looked up): as the sequence (P10275 whole entry, looked up) above
Target sequence in this assay (P40337 whole entry, looked up): as the sequence (P40337 whole entry, looked up) above

[4] = target: T1, von Hippel-Lindau disease tumor suppressor/Androgen receptor; assay: Protac activity at E3-ubiquitin ligase/AR in human LNCAP cells assessed as AR degradation up to 15 mins by ELISA relative to control; set-up: concentration or dose not given beside the values
Target sequence in this assay (P10275 whole entry, looked up): as the sequence (P10275 whole entry, looked up) above
Target sequence in this assay (P40337 whole entry, looked up): as the sequence (P40337 whole entry, looked up) above

[5] = target: T1, von Hippel-Lindau disease tumor suppressor/Androgen receptor; assay: Protac activity at E3-ubiquitin ligase/AR in human VCaP cells assessed as time taken for maximal degradation by ELISA
Target sequence in this assay (P10275 whole entry, looked up): as the sequence (P10275 whole entry, looked up) above
Target sequence in this assay (P40337 whole entry, looked up): as the sequence (P40337 whole entry, looked up) above

[6] = target: T1, von Hippel-Lindau disease tumor suppressor/Androgen receptor; assay: Protac activity at E3 ubiquitin-protein ligase/AR in human VCAP cells assessed as induction of AR degradation after 24 hrs by ELISA
Target sequence in this assay (P10275 whole entry): as the sequence (P10275 whole entry, looked up) above
Target sequence in this assay (P40337 whole entry): as the sequence (P40337 whole entry, looked up) above

[7] = target: T1, von Hippel-Lindau disease tumor suppressor/Androgen receptor; assay: Protac activity at E3 ubiquitin-protein ligase/AR in human LNCAP cells assessed as induction of AR degradation after 24 hrs by ELISA
Target sequence in this assay (P10275 whole entry): as the sequence (P10275 whole entry, looked up) above
Target sequence in this assay (P40337 whole entry): as the sequence (P40337 whole entry, looked up) above

[8] = target: T1, von Hippel-Lindau disease tumor suppressor/Androgen receptor; assay: Protac activity at E3-ubiquitin ligase/AR in human LNCAP cells assessed as time taken for maximum degradation by ELISA
Target sequence in this assay (P10275 whole entry, looked up): as the sequence (P10275 whole entry, looked up) above
Target sequence in this assay (P40337 whole entry, looked up): as the sequence (P40337 whole entry, looked up) above

SMILES	Emax [1] [%]	Activity [2] [%]	Emax [3] [%]	Activity [4] [%]	TIME [5] [h]	DC50 [6] [µM]	DC50 [7] [µM]	TIME [8] [h]
Cc1ncsc1-c1ccc(CNC(=O)[C@@H]2C[C@@H](O)CN2C(=O)[C@@H](NC(=O)COCCCOCCCCCOc2ccc(N3C(=S)N(c4ccc(C#N)c(C(F)(F)F)c4)C(=O)C3(C)C)cc2)C(C)(C)C)cc1	> 71	50	< 70	50	4	≤ 50	≤ 50	4
Cc1ncsc1-c1ccc([C@H](C)NC(=O)[C@@H]2C[C@@H](O)CN2C(=O)[C@@H](NC(=O)COCCCOCCCCCOc2ccc(N3C(=S)N(c4ccc(C#N)c(C(F)(F)F)c4)C(=O)C3(C)C)cc2F)C(C)(C)C)cc1	> 71	50	< 70	50	4	≤ 50	≤ 50	4
Cc1ncsc1-c1ccc(CNC(=O)[C@@H]2C[C@@H](O)CN2C(=O)[C@@H](NC(=O)COCCCOCCCCOc2ccc(N3C(=S)N(c4ccc(C#N)c(Cl)c4)C(=O)C3(C)C)cc2)C(C)(C)C)cc1	> 71	50	> 71	50	4	≤ 50	≤ 50	4
Cc1ncsc1-c1ccc(CNC(=O)[C@@H]2C[C@@H](O)CN2C(=O)[C@@H](NC(=O)COCCCOCCCCOc2ccc(N3C(=S)N(c4cnc(C#N)c(C(F)(F)F)c4)C(=O)C3(C)C)cc2)C(C)(C)C)cc1	> 71	50	> 71	50	4	≤ 50	≤ 50	4
Cc1ncsc1-c1ccc([C@H](C)NC(=O)[C@@H]2C[C@@H](O)CN2C(=O)[C@@H](NC(=O)COCCCOCCCCCOc2c(F)cc(N3C(=S)N(c4ccc(C#N)c(C(F)(F)F)c4)C(=O)C3(C)C)cc2F)C(C)(C)C)cc1	> 71	50	< 70	50	4	≤ 50	≤ 50	4
Cc1ncsc1-c1ccc(CNC(=O)[C@@H]2C[C@@H](O)CN2C(=O)[C@@H](NC(=O)COCCCOCCCCCOc2ccc(N3C(=S)N(c4cnc(C#N)c(C(F)(F)F)c4)C(=O)C3(C)C)cc2)C(C)(C)C)cc1	> 71	50	< 70	50	4	≤ 50	≤ 50	4
Cc1ncsc1-c1ccc(CNC(=O)[C@@H]2C[C@@H](O)CN2C(=O)[C@@H](NC(=O)COCCCOCCCCOc2ccc(N3C(=S)N(c4ccc(C#N)c(C(F)(F)F)c4)C(=O)C3(C)C)cc2F)C(C)(C)C)cc1	> 71	50	> 71	50	4	≤ 50	≤ 50	4
Cc1ncsc1-c1ccc(CNC(=O)[C@@H]2C[C@@H](O)CN2C(=O)[C@@H](NC(=O)COCCCCOc2ccc(-c3ccc(N4C(=S)N(c5ccc(C#N)c(C(F)(F)F)c5)C(=O)C4(C)C)cc3)cc2)C(C)(C)C)cc1	> 71	50	> 71	50	4	≤ 50	≤ 50	4
